Data on 17 molecules can be found in the NIST ThermoML archive (doi:10.1021/je060142u).

The data set can be described thus: activity coefficient (dimensionless); of the first substance listed, at infinite dilution; xn = mol fraction of the nth substance listed. Particulars: 101 kPa, Liquid, Chromatography, x1 = 0.

Numbers after ± are expanded uncertainties.

With `CCCCCC` [hexane] + CCCCn1cc[n+](C)c1.F[B-](F)(F)F, the activity coefficient was found to be 60.8 ± 5.3 (303.15 K); 57.5 ± 5 (313.15 K); 54.2 ± 4.7 (323.15 K); 50.5 ± 4.4 (333.15 K); 47 ± 4.1 (343.15 K).
The matching figures for `CCCCCCC` [heptane] + CCCCn1cc[n+](C)c1.F[B-](F)(F)F: 92.5 ± 8, 86.7 ± 7.5, 81.7 ± 7.1, 78.9 ± 6.8 and 71.5 ± 6.2.
The matching figures for `C1CCCCC1` [cyclohexane] + CCCCn1cc[n+](C)c1.F[B-](F)(F)F: 32.4 ± 2.8, 30.2 ± 2.6, 28.3 ± 2.5, 26.9 ± 2.3 and 24.6 ± 2.1.
Regarding `CCCCCCCCCC` [decane] + CCCCn1cc[n+](C)c1.F[B-](F)(F)F, the activity coefficient stood at 414 ± 36 (303.15 K); 335 ± 29 (313.15 K); 320 ± 28 (323.15 K); 296 ± 26 (333.15 K); 279 ± 24 (343.15 K).
The matching figures for `CCCCCCCCC` [nonane] + CCCCn1cc[n+](C)c1.F[B-](F)(F)F: 224 ± 20, 193 ± 17, 187 ± 16, 179 ± 16 and 170 ± 15.
The matching figures for `C=Cc1ccccc1` [styrene] + CCCCn1cc[n+](C)c1.F[B-](F)(F)F: 2.29 ± 0.2, 2.29 ± 0.2, 2.34 ± 0.2, 2.41 ± 0.21 and 2.48 ± 0.21.
The like results for `Cc1ccc(C)cc1` [1,4-dimethylbenzene] + CCCCn1cc[n+](C)c1.F[B-](F)(F)F were, in that order, 4.97 ± 0.43, 5.15 ± 0.44, 5.28 ± 0.46, 5.33 ± 0.46 and 5.47 ± 0.47.
With `Cc1ccccc1C` [1,2-dimethylbenzene] + CCCCn1cc[n+](C)c1.F[B-](F)(F)F, the activity coefficient reads like this: (303.15 K) 4.2 ± 0.36; (313.15 K) 4.18 ± 0.36; (323.15 K) 4.16 ± 0.36; (333.15 K) 4.16 ± 0.36; (343.15 K) 4.14 ± 0.36.
On to `Cc1ccccc1` [toluene] + CCCCn1cc[n+](C)c1.F[B-](F)(F)F, for which the activity coefficient reads like this: (303.15 K) 2.91 ± 0.25; (313.15 K) 2.94 ± 0.25; (323.15 K) 2.95 ± 0.25; (333.15 K) 2.99 ± 0.26; (343.15 K) 3.03 ± 0.26.
The like results for `CCCCCCCC` [octane] + CCCCn1cc[n+](C)c1.F[B-](F)(F)F were, in that order, 139 ± 12, 136 ± 12, 127 ± 11, 119 ± 10 and 111 ± 9.6.
The like results for `CCc1ccccc1` [ethylbenzene] + CCCCn1cc[n+](C)c1.F[B-](F)(F)F were, in that order, 5.61 ± 0.48, 5.54 ± 0.48, 5.49 ± 0.47, 5.42 ± 0.47 and 5.37 ± 0.46.
The matching figures for `CC1CCCCC1` [methylcyclohexane] + CCCCn1cc[n+](C)c1.F[B-](F)(F)F: 48.7 ± 4.2, 45.6 ± 3.9, 42.4 ± 3.7, 39.8 ± 3.5 and 37.3 ± 3.2.
On to `CCCCC` [pentane] + CCCCn1cc[n+](C)c1.F[B-](F)(F)F, for which the activity coefficient was determined as 40.7 ± 3.5 (303.15 K); 39.7 ± 3.4 (313.15 K); 38.1 ± 3.3 (323.15 K); 36.3 ± 3.1 (333.15 K); 35.8 ± 3.1 (343.15 K).
The like results for `c1ccccc1` [benzene] + CCCCn1cc[n+](C)c1.F[B-](F)(F)F were, in that order, 1.74 ± 0.15, 1.76 ± 0.15, 1.77 ± 0.15, 1.8 ± 0.15 and 1.83 ± 0.16.
The matching figures for `Cc1cccc(C)c1` [1,3-dimethylbenzene] + CCCCn1cc[n+](C)c1.F[B-](F)(F)F: 5.25 ± 0.45, 5.24 ± 0.45, 5.23 ± 0.45, 5.23 ± 0.45 and 5.22 ± 0.45.
The matching figures for `C1=CCCCC1` [cyclohexene] + CCCCn1cc[n+](C)c1.F[B-](F)(F)F: 14.1 ± 1.2, 13.5 ± 1.2, 12.9 ± 1.1, 12.4 ± 1.1 and 11.9 ± 1.
`CC(C)CC(C)(C)C` [2,2,4-trimethylpentane] + CCCCn1cc[n+](C)c1.F[B-](F)(F)F: the activity coefficient is 92.7 ± 8 (303.15 K); 88.6 ± 7.7 (313.15 K); 83.8 ± 7.3 (323.15 K); 79.5 ± 6.9 (333.15 K); 75.5 ± 6.5 (343.15 K).
